# Test results taken from EP0280239A1, “1,4-Dihydropyridine derivatives, production and use thereof” (SANWA KAGAKU KENKYUSHO CO., LTD., priority 1987, dated 1988).
# What was measured:
# Assay type in all cases: in vivo
# mongrel dogs [1] = test: Blood flow increasing action (vertebral and femoral arterial blood flow, blood pressure) in anesthetized dogs; conditions: Canis lupus familiaris, iv, read-out: ED50, i.v. (amount required to increase the vertebral arterial blood flow by 50%)
# mongrel dogs [2] = test: as above; conditions: 1µg/kg, i.v., 5 head
# Protocol: Pharmacological Test Example 1 (Blood flow increasing action)
# An experiment was carried out by anesthetizing adult made and female mongrel dogs (weight; 10 to 20kg) with Nembutal (30mg/kg, i.p.) and artificially respiring (20ml/kg/stroke, 20 strokes/min.) the animals.
# Right vertebral and femoral arteries were exposed and each probe of electro-magnetic flow meter was fitted therein to measure vertebral and femoral arterial blood flows. A cannula was inserted into descending aorta from left femoral artery, in order to measure blood pressure by a pressure transducer connected to an amplifier. Each of test compounds dissolved in 50% ethanol solution (1µg/kg, i.v.) was administered from the cannula into cephlic vein.
# Further, an amount of the compound required to increase the vertebral arterial blood flow by 50% was checked to obtain results shown in following Table 2, wherein the amount is given as ED₅₀ (µg/kg).
# [3] = test system: spontaneously hypertensive rats; test: Blood pressure depressing action in spontaneously hypertensive rats; conditions: male spontaneously hypertensive rats, oral, 3.0 mg/kg, N=6; for systric pressure of median sacral artery, change at 1 hr (%): 1 hr after administration; for systric pressure of median sacral artery, change at 2 hr (%): 2 hr after administration; for systric pressure of median sacral artery, change at 4 hr (%): 4 hr after administration; for systric pressure of median sacral artery, change at 6 hr (%): 6 hr after administration; for systric pressure of median sacral artery, change at 24 hr (%): 24 hr after administration
# Source text: Pharmacological Test Example 2 (Blood pressure depressing action)
Structure (SMILES),ED50 (mongrel dogs [1]) [µg/kg],Change (%) DBP (Diastolic blood pressure) (mongrel dogs [2]) [%],Change (%) FABF (Femoral arteial blood flow) (mongrel dogs [2]) [%],Change (%) VABF (Vertebral arterial blood flow) (mongrel dogs [2]) [%],"systric pressure of median sacral artery, change at 1 hr (%) [3] [%]","systric pressure of median sacral artery, change at 2 hr (%) [3] [%]","systric pressure of median sacral artery, change at 4 hr (%) [3] [%]","systric pressure of median sacral artery, change at 6 hr (%) [3] [%]","systric pressure of median sacral artery, change at 24 hr (%) [3] [%]"
"CC1=C(C(=O)OCCN(C)Cc2ccc(Cl)cc2Cl)C(c2cccc([N+](=O)[O-])c2)C(C(=O)OCC2CC2)=C(C)N1 (centres unmarked) [Example 1, 3-Cyclopropylmethyl 5-[2-[N-(2,4-dichlorobenzyl)-N-methylamino]-ethyl]1.4-dihydro-2,6-dimethyl-4-(3-nitrophenyl)-pyridine-3,5-dicarboxylate]",1.1,-7 ± 1,23 ± 7,90 ± 17,-33.3±6.57,-35.2±4.12,-34.0±2.42,-32.8±2.72,-13.0±5.94
"CC1=C(C(=O)OCCN2Cc3ccc(Cl)cc3C2)C(c2cccc([N+](=O)[O-])c2)C(C(=O)OCC2CC2)=C(C)N1 (centres unmarked) [Example 2, 3-[2-(5-Chloroisoindolin-2-yl)ethyl] 5-cyclopropymethyl 1.4-dihydro-2,6-dimethyl-4-(3-nitrophenyl)-pyridine-3,5-dicarboxylate]",1.6,-7 ± 2,23 ± 8,40 ± 6,-3.0±1.47,-9.0±2.82,-13.2±6.15,-21.4±3.67,-14.3±4.09
"COC(=O)C1=C(C)NC(C)=C(C(=O)OCCN(C)Cc2ccccc2)C1c1cccc([N+](=O)[O-])c1 (centres unmarked) [Nicardipine, 1,4-dihydro-2,6-dimethyl-4-(3-nitrophenyl)pyridine-3,5-dicarboxylic acid 3-2-(N-benzyl-N-methylamino)ethyl 5-methyl ester, reference compound]",4.2,-10 ± 1,14 ± 5,32 ± 7,-10.0±2.28,-5.7±1.61,-3.0±2.01,-1.0±1.50,-4.2±1.88
"COC(=O)C1=C(C)NC(C)=C(C(=O)OC)C1c1ccccc1[N+](=O)[O-] [Nifedipine, dimethyl ester of 1,4-dihydro-2,6-dimethyl-4-(2-nitrophenyl)pyridine-3,5-dicarboxylic acid, reference compound]",,,,,-19.3±4.41,-10.6±3.14,-4.3±2.70,-0.1±1.56,-1.1±1.06
